Like-named read-outs stand apart in the source and are kept apart here.
Key:
[1] = molecular target: PI3Kγ (p110γ) Recombinant Human Protein (Homo sapiens (Human), UniProt P48736); test: PI3K-γ Scintillation Proximity Assay; type: biochemical; conditions: 20 μM PIP2, 2 μM ATP, 13 nM PI3Kγ, 120 min, room temperature
Description: Example B. PI3K-γ Scintillation Proximity Assay Materials: [γ-^33P]ATP (10 mCi/mL) and Wheat Germ Agglutinin (WGA) YSi SPA Scintillation Beads was purchased from Perkin Elmer (Waltham, MA). Lipid kinase substrate, D-myo-Phosphatidylinositol 4,5-bisphosphate (PtdIns(4,5)P2)D (+)-sn-1,2-di-O-octanoylglyceryl, 3-O-phospho linked (PIP2), CAS 204858-53-7, was purchased from Echelon Biosciences (Salt Lake City, UT). PI3Kγ (p110γ) Recombinant Human Protein was purchased from Life technology (Grand Island, NY). ATP, MgCl2, DTT, EDTA, MOPS and CHAPS were purchased from Sigma Aldrich (St. Louis, MO). The kinase reaction was conducted in polystyrene 384-well Greiner Bio-one white plate from Thermo Fisher Scientific in a final volume of 25 μL. Inhibitors were first diluted serially in DMSO and added to the plate wells before the addition of other reaction components. The final concentration of DMSO in the assay was 2%. The PI3Kγ assay was carried out at room temperature in 20 mM MOPS, pH 6.7, 10 mM MgCl2, 5 mM DTT and CHAPS 0.03%. Reactions were initiated by the addition of ATP, the final reaction mixture consisted of 20 μM PIP2, 2 μM ATP, 0.5 μCi [γ-^33P] ATP, 13 nM PI3Kγ. Reactions were incubated for 120 min and terminated by the addition of 40 μL SPA beads suspended in quench buffer: 163 mM potassium phosphate pH 7.8, 20% glycerol, 25 mM EDTA. The final concentration of SPA beads is 1.0 mg/mL. After the plate sealing, plates were shaken overnight at room temperature and centrifuged at 1500 rpm for 10 min, the radioactivity of the product was determined by scintillation counting on Topcount (Perkin-Elmer). IC50 determination was performed by fitting the curve of percent of the solvent control activity versus the log of the inhibitor concentration using the GraphPad Prism 6.0 software.

[2] = molecular target: PI3Kδ (p110δ/p85α) Recombinant Human Protein (Homo sapiens (Human), UniProt O00329); test: PI3Kδ Scintillation Proximity Assay; type: biochemical; conditions: 20 μM PIP2, 2 μM ATP, 3.4 nM PI3Kδ, 120 min, room temperature
Sequence of PI3Kδ (p110δ/p85α) Recombinant Human Protein (O00329 whole entry): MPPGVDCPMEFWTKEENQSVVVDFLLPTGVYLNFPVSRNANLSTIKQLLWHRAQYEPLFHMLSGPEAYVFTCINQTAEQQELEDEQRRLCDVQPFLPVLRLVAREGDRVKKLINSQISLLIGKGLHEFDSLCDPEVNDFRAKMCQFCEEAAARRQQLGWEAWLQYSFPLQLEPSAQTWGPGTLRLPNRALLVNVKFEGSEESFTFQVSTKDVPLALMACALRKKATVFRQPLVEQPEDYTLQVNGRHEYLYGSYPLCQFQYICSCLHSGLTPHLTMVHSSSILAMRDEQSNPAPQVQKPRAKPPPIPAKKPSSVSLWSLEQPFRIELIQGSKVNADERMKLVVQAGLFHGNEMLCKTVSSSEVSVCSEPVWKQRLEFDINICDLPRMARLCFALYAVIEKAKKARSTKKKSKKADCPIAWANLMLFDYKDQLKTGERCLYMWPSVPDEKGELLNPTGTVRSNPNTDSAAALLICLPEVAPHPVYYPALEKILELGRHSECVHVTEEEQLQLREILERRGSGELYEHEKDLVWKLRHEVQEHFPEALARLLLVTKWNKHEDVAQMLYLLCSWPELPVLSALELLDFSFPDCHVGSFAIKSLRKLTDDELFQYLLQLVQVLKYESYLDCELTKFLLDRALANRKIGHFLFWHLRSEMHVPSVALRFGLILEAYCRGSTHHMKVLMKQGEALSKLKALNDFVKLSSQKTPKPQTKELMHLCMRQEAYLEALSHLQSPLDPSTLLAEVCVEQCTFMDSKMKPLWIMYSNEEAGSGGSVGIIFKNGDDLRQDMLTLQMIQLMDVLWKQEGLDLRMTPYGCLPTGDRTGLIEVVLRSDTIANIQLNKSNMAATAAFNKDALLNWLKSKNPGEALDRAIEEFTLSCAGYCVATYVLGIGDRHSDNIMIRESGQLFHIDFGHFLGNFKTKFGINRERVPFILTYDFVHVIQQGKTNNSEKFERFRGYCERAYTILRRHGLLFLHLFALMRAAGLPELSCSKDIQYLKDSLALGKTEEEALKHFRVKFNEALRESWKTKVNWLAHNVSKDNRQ
Sequence of PI3Kδ (p110δ/p85α) Recombinant Human Protein (P27986 whole entry partner): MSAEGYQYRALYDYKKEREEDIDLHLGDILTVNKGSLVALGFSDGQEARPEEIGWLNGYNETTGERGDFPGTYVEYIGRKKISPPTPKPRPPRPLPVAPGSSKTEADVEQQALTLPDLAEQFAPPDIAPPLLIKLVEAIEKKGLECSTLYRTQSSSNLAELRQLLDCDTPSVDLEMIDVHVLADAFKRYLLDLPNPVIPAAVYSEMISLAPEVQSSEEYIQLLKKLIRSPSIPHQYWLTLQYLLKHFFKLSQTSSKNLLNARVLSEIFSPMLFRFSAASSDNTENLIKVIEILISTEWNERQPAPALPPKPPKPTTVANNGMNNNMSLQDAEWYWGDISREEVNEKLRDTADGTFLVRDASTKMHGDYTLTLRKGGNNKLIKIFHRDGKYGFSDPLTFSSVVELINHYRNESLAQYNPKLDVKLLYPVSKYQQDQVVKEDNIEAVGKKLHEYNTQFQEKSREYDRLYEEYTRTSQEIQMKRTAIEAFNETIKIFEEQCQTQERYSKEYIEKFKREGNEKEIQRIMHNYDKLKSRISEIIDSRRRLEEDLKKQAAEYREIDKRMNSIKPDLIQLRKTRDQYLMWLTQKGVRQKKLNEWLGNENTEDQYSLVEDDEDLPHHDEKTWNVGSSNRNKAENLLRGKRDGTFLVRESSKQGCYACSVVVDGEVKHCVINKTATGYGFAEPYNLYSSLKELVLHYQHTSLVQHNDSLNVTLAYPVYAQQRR
Description: Example C. PI3Kδ Scintillation Proximity Assay Materials: [γ-^33P]ATP (10 mCi/mL) and Wheat Germ Agglutinin (WGA) YSi SPA Scintillation Beads was purchased from Perkin Elmer (Waltham, MA). Lipid kinase substrate, D-myo-Phosphatidylinositol 4,5-bisphosphate (PtdIns(4,5)P2)D (+)-sn-1,2-di-O-octanoylglyceryl, 3-O-phospho linked (PIP2), CAS 204858-53-7, was purchased from Echelon Biosciences (Salt Lake City, UT). PI3Kδ (p110δ/p85α) Recombinant Human Protein was purchased from Eurofins (St Charles, MO). ATP, MgCl2, DTT, EDTA, MOPS and CHAPS were purchased from Sigma Aldrich (St. Louis, MO). The kinase reaction was conducted in polystyrene 384-well Greiner Bio-one white plate from Thermo Fisher Scientific in a final volume of 25 μL. Inhibitors were first diluted serially in DMSO and added to the plate wells before the addition of other reaction components. The final concentration of DMSO in the assay was 2%. The PI3Kδ assay was carried out at room temperature in 20 mM MOPS, pH 6.7, 10 mM MgCl2, 5 mM DTT and CHAPS 0.03%. Reactions were initiated by the addition of ATP, the final reaction mixture consisted of 20 μM PIP2, 2 μM ATP, […] [γ-^33P] ATP, 3.4 nM PI3Kδ. Reactions were incubated for 120 min and terminated by the addition of 40 μL SPA beads suspended in quench buffer: 163 mM potassium phosphate pH 7.8, 20% glycerol, 25 mM EDTA. The final concentration of SPA beads is 1.0 mg/mL. After the plate sealing, plates were shaken overnight at room temperature and centrifuged at 1500 rpm for 10 min, the radioactivity of the product was determined by scintillation counting on Topcount (PerkinElmer). IC50 determination was performed by fitting the curve of percent of the solvent control activity versus the log of the inhibitor concentration using the GraphPad Prism 6.0 software.

[3] = system: Phosphorylated Ribosomal Protein S6 (RPS6) in THP-1 cells; test: THP-1 RPS6 ELISA Assay; type: cell-based, Human; conditions: THP-1 cells, serum starved, 2 hours compound, 10 nM MCP-1 for 15 minutes, Phospho-RPS6 ELISA, read-out: PI3Kγ_THP1_RPS6_ELISA IC50
Method: Example A. THP-1 RPS6 ELISA Assay
To measure the Phosphorylated Ribosomal Protein S6 (RPS6) in cell lysates, THP-1 cells (Human Acute Monocytic Leukemia) are purchased from ATCC (Manassas, VA) and maintained in RPMI with 10% FBS (Gibco/Life Technologies, Carlsbad, CA). For the assay, THP-1 cells are serum starved overnight in RPMI, then plated in RPMI (2×10^5 cells/well in 90 μL) into 96-well flat-bottom tissue culture treated plates (Corning, Corning, NY), in the presence or absence of a concentration range of test compounds. Covered plates are incubated for 2 hours at 37° C., 5% CO2 then treated with or without 10 nM MCP-1(MYBioSource, San Diego, CA) for 15 minutes at 37° C., 5% CO2. Plates are centrifuged at 1600 RPM and supernatants are removed. Cells are lysed in Lysis Buffer (Cell Signaling, Danvers, MA) with Protease Inhibitor (Calbiochem/EMD, Germany), PMSF (Sigma, St Louis MO), HALTS (Thermo Fisher, Rockford, IL) for 30 min on wet ice. Cell lysates are frozen at −80° C. before testing. The lysates are tested in the Human/Mouse/Rat Phospho-RPS6 ELISA (R&D Systems, Inc. Minn, MN). The plate is measured using a microplate reader (SpectraMax M5—Molecular Devices, LLC Sunnyvale, CA) set to 450 nm with a wavelength correction of 540. IC50 determination is performed by fitting the curve of inhibitor percent inhibition versus the log of the inhibitor concentration using the GraphPad Prism 5.0 software.

Sequence of PI3Kγ (p110γ) Recombinant Human Protein (P48736 whole entry): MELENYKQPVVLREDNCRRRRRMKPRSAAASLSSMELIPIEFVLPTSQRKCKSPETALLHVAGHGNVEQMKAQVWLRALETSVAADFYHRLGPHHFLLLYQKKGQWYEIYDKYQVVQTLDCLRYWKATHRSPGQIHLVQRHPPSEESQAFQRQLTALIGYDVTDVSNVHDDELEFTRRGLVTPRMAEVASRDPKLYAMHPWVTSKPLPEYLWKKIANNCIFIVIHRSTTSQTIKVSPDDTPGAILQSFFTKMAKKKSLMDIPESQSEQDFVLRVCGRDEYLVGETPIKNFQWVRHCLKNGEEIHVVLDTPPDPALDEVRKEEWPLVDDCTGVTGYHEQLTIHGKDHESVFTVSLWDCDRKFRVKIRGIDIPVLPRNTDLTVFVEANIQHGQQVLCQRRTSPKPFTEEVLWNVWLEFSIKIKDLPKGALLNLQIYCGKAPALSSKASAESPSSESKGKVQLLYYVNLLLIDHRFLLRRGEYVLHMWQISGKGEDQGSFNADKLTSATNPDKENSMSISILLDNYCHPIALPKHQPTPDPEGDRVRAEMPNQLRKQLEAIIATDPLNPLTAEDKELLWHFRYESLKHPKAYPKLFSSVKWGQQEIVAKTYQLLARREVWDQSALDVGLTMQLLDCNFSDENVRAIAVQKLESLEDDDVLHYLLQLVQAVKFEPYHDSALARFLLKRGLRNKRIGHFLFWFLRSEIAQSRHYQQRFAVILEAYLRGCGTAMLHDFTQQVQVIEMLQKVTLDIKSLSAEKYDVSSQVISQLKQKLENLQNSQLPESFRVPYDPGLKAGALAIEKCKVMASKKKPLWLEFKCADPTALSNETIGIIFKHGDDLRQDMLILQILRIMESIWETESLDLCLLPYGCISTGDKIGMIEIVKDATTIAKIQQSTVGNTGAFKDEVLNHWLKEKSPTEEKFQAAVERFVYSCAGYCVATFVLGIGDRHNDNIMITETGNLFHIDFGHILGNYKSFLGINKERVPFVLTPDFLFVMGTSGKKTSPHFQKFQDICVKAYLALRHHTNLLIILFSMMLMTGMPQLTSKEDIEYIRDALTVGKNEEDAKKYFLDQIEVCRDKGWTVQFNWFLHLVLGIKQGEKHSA

| IC50 [1] [nM] | IC50 [2] [nM] | IC50 ([3]; Homo sapiens) [nM] | SMILES | IC50 [3] [nM] |
| --- | --- | --- | --- | --- |
| ≤ 100 | ≤ 100 | < 100 | [2H]C([2H])([2H])c1ccc(C(O)(CO)C(F)F)cc1-c1cnc(N)c(C(=O)NC23CCC(C#N)(C2)C3)n1 (single isomer, unassigned) [Example 40] | – |
| ≤ 100 | ≤ 100 | < 100 | [2H]C([2H])([2H])c1ccc(C(O)(CO)C(F)F)cc1-c1cnc(N)c(C(=O)NC2CCOCC2)n1 (single isomer, unassigned) [Example 41] | – |
| ≤ 100 | ≤ 100 | < 100 | Cc1ccc(C(O)(CO)C(F)F)cc1-c1cnc(N)c(C(=O)NC2CCOCC2)n1 (single isomer, unassigned) [Example 42] | – |
| ≤ 100 | ≤ 500 | < 500 | Cc1ccc([C@](O)(CO)C(F)F)cc1-c1cnc(N)c(C(=O)N[C@@H](C)CO)n1 (single isomer, unassigned) [Example 43] | – |
| ≤ 100 | ≤ 100 | < 100 | Cc1ccc(C(O)(CO)C(F)F)cc1-c1cnc(N)c(C(=O)NC23CCC(O)(CC2)C3)n1 (single isomer, unassigned) [Example 44, 3-Amino-6-(5-(1,1-difluoro-2,3-dihydroxypropan-2-yl)-2-methylphenyl)-N-(4-hydroxybicyclo[2.2.1]heptan-1-yl)pyrazine-2-carboxamide] | – |
| ≤ 100 | ≤ 100 | < 100 | Cc1ccc(C(O)(CO)C(F)F)cc1-c1cnc(N)c(C(=O)NC23CCC(C#N)(C2)C3)n1 (single isomer, unassigned) [Example 48, 3-Amino-N-(4-cyanobicyclo[2.1.1]hexan-1-yl)-6-(5-(1,1-difluoro-2,3-dihydroxypropan-2-yl)-2-methylphenyl)pyrazine-2-carboxamide] | – |
| ≤ 100 | ≤ 100 | < 100 | [2H]C([2H])([2H])c1ccc(C(O)(C(O)C(F)(F)F)C(F)(F)F)cc1-c1cnc(N)c(-c2c[nH]nc2C)n1 (stereo not drawn) [Example 21, 2-(3-(5-Amino-6-(3-methyl-1H-pyrazol-4-yl)pyrazin-2-yl)-4-(methyl-d3)phenyl)-1,1,1,4,4,4-hexafluorobutane-2,3-diol] | – |
| ≤ 100 | ≤ 500 | < 100 | Cc1ccc(C(O)(C(C)(C)O)C(F)(F)F)cc1-c1cnc(N)c(C(=O)NC2CCOCC2)n1 (stereo not drawn) [Example 22, 3-Amino-6-(2-methyl-5-(1,1,1-trifluoro-2,3-dihydroxy-3-methylbutan-2-yl)phenyl)-N-(tetrahydro-2H-pyran-4-yl)pyrazine-2-carboxamide] | – |
| ≤ 100 | ≤ 500 | < 500 | Cc1ccc(C(O)(CO)C(F)(F)F)cc1-c1cnc(N)c(C2CN(S(=O)(=O)c3ccn(C)n3)C2)n1 (stereo not drawn) [Example 23, 2-(3-(5-Amino-6-(1-((1-methyl-1H-pyrazol-3-yl)sulfonyl)azetidin-3-yl)pyrazin-2-yl)-4-methylphenyl)-3,3,3-trifluoropropane-1,2-diol] | – |
| ≤ 100 | ≤ 100 | < 100 | Cc1ccc(C(O)(CO)C(F)F)cc1-c1cnc(N)c(C(=O)NC2(C)CCOC2)n1 [Example 47, 3-amino-6-(5-((S)-1,1-difluoro-2,3-dihydroxypropan-2-yl)-2-methylphenyl)-N-(3-methyltetrahydrofuran-3-yl)pyrazine-2-carboxamide] | – |

| SMILES | IC50 [1] [nM] | IC50 [2] [nM] | IC50 ([3]; Homo sapiens) [nM] | IC50 [3] [nM] |
| --- | --- | --- | --- | --- |
| Cc1ccc([C@](O)(CO)C(F)F)cc1-c1cnc(N)c(C(=O)N2CCC[C@@H]2CO)n1 [Example 45, (3-Amino-6-(5-((S)-1,1-difluoro-2,3-dihydroxypropan-2-yl)-2-methylphenyl)pyrazin-2-yl)((R)-2-(hydroxymethyl)pyrrolidin-1-yl)methanone] | ≤ 100 | < 2000 | – | < 500 |

Source: patent US11926616B2, “Aminopyrazine diol compounds as PI3K-γ inhibitors” (Incyte Corporation, priority 2018, dated 2024)
